Our source for the Relative binding affinity and Kd values is ChEMBL document CHEMBL1122719, “Steroids. 2. Synthesis of C-18 functionalized steroids via the Smith-Hughes route” (J Med Chem, 1984).

The target of one assay is T1, Progesterone receptor (Gallus gallus) (UniProt P07812).
T1 sequence (whole entry): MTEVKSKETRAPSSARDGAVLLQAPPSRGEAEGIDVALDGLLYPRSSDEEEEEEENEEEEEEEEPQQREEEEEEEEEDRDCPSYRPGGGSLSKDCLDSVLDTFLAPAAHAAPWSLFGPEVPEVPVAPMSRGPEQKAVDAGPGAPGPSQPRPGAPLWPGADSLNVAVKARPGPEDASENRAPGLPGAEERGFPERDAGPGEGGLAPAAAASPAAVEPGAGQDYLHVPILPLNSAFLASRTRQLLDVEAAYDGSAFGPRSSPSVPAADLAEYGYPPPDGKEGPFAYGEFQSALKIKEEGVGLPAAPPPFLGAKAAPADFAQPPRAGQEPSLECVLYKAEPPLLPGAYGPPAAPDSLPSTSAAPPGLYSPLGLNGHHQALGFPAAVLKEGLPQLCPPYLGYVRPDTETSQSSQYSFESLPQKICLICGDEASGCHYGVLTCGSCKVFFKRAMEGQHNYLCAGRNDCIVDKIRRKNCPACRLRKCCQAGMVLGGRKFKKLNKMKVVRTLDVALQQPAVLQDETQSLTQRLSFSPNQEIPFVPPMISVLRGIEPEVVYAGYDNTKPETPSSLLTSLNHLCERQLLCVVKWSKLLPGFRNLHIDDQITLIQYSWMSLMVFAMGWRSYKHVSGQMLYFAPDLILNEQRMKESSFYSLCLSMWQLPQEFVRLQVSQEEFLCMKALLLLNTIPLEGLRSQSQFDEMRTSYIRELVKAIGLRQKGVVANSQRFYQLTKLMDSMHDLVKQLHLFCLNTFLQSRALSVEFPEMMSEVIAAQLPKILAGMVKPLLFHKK
Briefly: In vitro displacement of progesterone from oviduct progesterone receptor relative to progesterone.
`CC(=O)[C@H]1CC[C@H]2[C@@H]3CCC4=CC(=O)CC[C@]4(C)[C@H]3CC[C@]12C` came in with a Relative binding affinity of 100%.

In turn, `C#C[C@@H](O)C12CCCC1C1CCC3=CC(=O)CC[C@@H]3C1CC2.C#C[C@H](O)C12CCCC1C1CCC3=CC(=O)CC[C@@H]3C1CC2` (stereo partly drawn) gave a Relative binding affinity of 3.1%.

As for `C#C[C@@H](O)C12CCCC1C1CCC3=CC(=O)CC[C@@H]3C1CC2` (stereo partly drawn), the Relative binding affinity came out at 0.6%.

Take `CC(=O)C[C@@]12CCC[C@H]1[C@@H]1CCC3=CC(=O)CC[C@@H]3[C@H]1CC2`: the Relative binding affinity amounted to 2%.

Compound `C#C[C@]1(O)CC[C@H]2[C@@H]3CCC4=CC(=O)CC[C@@H]4[C@H]3CC[C@@]21C` [NORETHINDRONE] came in with a Relative binding affinity of 350%.

In the case of `CC(=O)OC(C(C)=O)[C@@]12CCC[C@H]1[C@@H]1CCC3=CC(=O)CC[C@@H]3[C@H]1CC2` (stereo partly drawn), the Relative binding affinity was determined as 0.1%.

In the next assay the target is Estrogen receptor (Rattus norvegicus, UniProt P06211+Q62986). Briefly: Equilibrium dissociation constant for rat uterine estrogen receptor binding [3H]estradiol. The assay is classed as protein assay.
As for `C#C[C@]1(O)CC[C@H]2[C@@H]3CCC4=CC(=O)CC[C@@H]4[C@H]3CC[C@@]21C` [NORETHINDRONE], the Kd (commonly the free concentration of one partner at which half of the binding sites on the other are occupied at equilibrium, for simple one-to-one binding) was found to be 0.63 nM.

`OC[C@@]12CCC[C@H]1[C@@H]1CCc3cc(O)ccc3[C@H]1CC2` yielded a dissociation constant Kd of 310 nM.
